Counter-ions that a name gives are not always drawn. Like-named read-outs stand apart in the source and are kept apart here. One block for each molecule: values may come before it.
Assays:
[1] = cited from earlier work
[2] = Hygroscopicity by dynamic vapor sorption (DVS); format: physicochemical; conditions: for Hygroscopicity class: Chinese Pharmacopoeia 2015 guideline 9103, 25° C.; for Weight gain under 80% Relative Humidity: about 10 mg sample
Description: Dynamic vapor sorption (DVS) was applied to assess hygroscopicity of Form E and Form M in patent CN103781770B with about 10 mg of samples. The DVS plots of Form E and Form M were substantially as depicted in FIG. 8 and FIG. 9, respectively.
About hygroscopicity characterization description and definition of hygroscopicity (Chinese Pharmacopoeia 2015 edition general notices 9103 Drug hygroscopicity test guidelines, test at 25° C.+/−1° C., 80% Relative Humidity). • deliquescent: Sufficient water is absorbed to form a liquid; • very hygroscopic: Increase in mass is equal to or greater than 15 percent; • hygroscopic: Increase in mass is less than 15 percent and equal to or greater than 2 percent; • slightly hygroscopic: Increase in mass is less than 2 percent and equal to or greater than 0.2 percent. • no or almost no hygroscopic: Increase in mass is less than 0.2%.

[3] = Stability of solid form on storage, checked by XRPD; format: physicochemical; conditions: for Final Solid Form: 11 months, XRPD
Description: Solid samples of Form E were stored under conditions of 25° C./60% relative humidity (RH) and 40° C./75% RH for 11 months and XRPD were tested. The XRPD patterns before and after storage were substantially as depicted in FIG. 7.
Form E remains stable for at least 11 months under conditions of 25° C./60% RH and 40° C./75% RH. […] The XRPD patterns overlay are substantially as depicted in FIG. 7, in which the top, middle and bottom patterns correspond to the initial sample, sample stored at 25° C./60% RH for 11 months and sample stored at 40° C./75% RH for 11 months, respectively.

[4] = converts to liquid crystalline form B spontaneously when stored for some time; cited from earlier work

SMILES: O=C(O)c1ccc2nc(-c3cc(Cl)cc(Cl)c3)oc2c1 [Liquid crystalline form B, 6-carboxy-2-(3,5-dichlorophenyl)-benzoxazole meglumine salt]
Weight gain when stored at 90% relative humidity ([1]; 90% relative humidity): up to 25%
Hygroscopicity (in words) ([1]; prior-art description): highly deliquescent

Weight gain under 75% RH ([2]; DVS, 75% RH): 2.98%
Weight gain under 80% Relative Humidity ([2]; DVS, 80% RH): 2.98%-4.65%
Weight gain under 80% RH, inferred from FIG. 8 ([2]; DVS, 80% RH, inferred from the 75% RH value): > 2.98%
Hygroscopicity (in words) ([2]; background statement, "Studies show"): high
SMILES: O=C(O)c1ccc2nc(-c3cc(Cl)cc(Cl)c3)oc2c1 [Form M, 6-carboxy-2-(3,5-dichlorophenyl)-benzoxazole meglumine salt]
Hygroscopicity class ([2]; 80% RH): hygroscopic (Increase in mass is less than 15 percent and equal to or greater than 2 percent)

Time the form remains stable ([3]; 25° C./60% RH and 40° C./75% RH): at least 11 months
Final Solid Form ([3]; 25° C./60% RH): Form E
Final Solid Form ([3]; 40° C./75% RH): Form E
Weight gain under 80% Relative Humidity ([2]; DVS, 80% RH): 1.82%
SMILES: O=C(O)c1ccc2nc(-c3cc(Cl)cc(Cl)c3)oc2c1 [Form E, 6-carboxy-2-(3,5-dichlorophenyl)-benzoxazole meglumine salt]
Hygroscopicity class ([2]; 80% RH): slightly hygroscopic (Increase in mass is less than 2 percent and equal to or greater than 0.2 percent)

SMILES: O=C(O)c1ccc2nc(-c3cc(Cl)cc(Cl)c3)oc2c1 [amorphous form A, 6-carboxy-2-(3,5-dichlorophenyl)-benzoxazole meglumine salt]
Stability (in words) [4]: poor stability

Reference: US10577334B2, “Crystalline form E of tafamidis meglumine, process for preparation and use thereof” (Crystal Pharmatech Co., Ltd., priority 2016, dated 2020)
